Laboratory results from patent US20080262073A1, “Pyrrolic Derivatives with Histone Deacetylase Inhibitory Activity” (priority 2005, published 2008).

SMILES | melting point [°C]
O=C(O)CCCCCNC(=O)c1[nH]c(-c2ccccc2)cc1-c1ccccc1 [Example 4, 6-(3,5-diphenyl-1H-pyrrole-2-carboxamide)hexanoic acid] | 228 to 229
O=C(O)CCCCCNC(=O)c1[nH]c(-c2ccccc2)c([N+](=O)[O-])c1-c1ccccc1 [Example 5, 6-(4-nitro-3,5-diphenyl-1H-pyrrole-2-carboxamide)hexanoic acid] | 153 to 154
COc1ccc(-c2cc(-c3ccccc3)c(C(=O)NCCCCCC(=O)NO)[nH]2)cc1 [Example 6] | 157 to 158
COc1ccc(-c2[nH]c(C(=O)NCCCCCC(=O)NO)c(-c3ccccc3)c2[N+](=O)[O-])cc1 [Example 7] | 126 to 127
COc1ccc(-c2cc(-c3ccccc3)[nH]c2C(=O)NCCCCCC(=O)NO)cc1 [Example 8] | 142
CNNC(=O)NCCCCNC(=O)c1[nH]c(-c2ccc(OC)cc2)c([N+](=O)[O-])c1-c1cccs1 [Example 11, 1-(4-(5-(4-methoxyphenyl)-4-nitro-3-(thiophene-2-yl)-1H-pyrrole-2-carboxamide)butyl)-3-(2-methylamine)urea] | 185 to 187
